# Assay results reported in PMC6010047, “Design, synthesis and biological evaluation of novel hydroxy-phenyl-1H-benzimidazoles as radical scavengers and UV-protective agents” (Journal of Enzyme Inhibition and Medicinal Chemistry, 2017).
# “Also recorded” adds a separate entry of the source. Read-outs that look alike come from different tables or passages of the source.
# What was measured:
# [1] = Photochemiluminescence (PCL) method, ACL kit; format: biochemical; settings: pure compound; Trolox equivalents; mean ± SE of three experiments
# Method: (§1) PCL assay, based on the methodology of Popov and Lewin[23], was used to measure the antioxidant activity of synthesized compounds with a Photochem® apparatus (Analytik Jena, Leipzig, Germany) against superoxide anion radicals generated from luminol, a photosensitizer, when exposed to UV light (Double Bore® phosphor lamp, output 351 nm, 3 mWatt/cm^2). The antioxidant activity was measured using ACL (Antioxidant Capacity of Liposoluble substance) kit provided by the manufacturer designed to measure the antioxidant activity of lipophilic compounds[24]. […] The areas under the curves were calculated using the PCLsoft control and analysis software. […] This inhibition was used as a parameter for quantification and related to the decrease in the integral of PCL intensities caused by varying concentrations of Trolox. The observed inhibition of the signal was plotted against the concentration of Trolox added to the assay medium. The concentration of the added tested compounds was such that the generated luminescence during the 180-s sampling interval fell within the limits of the standard curve. The antioxidant assay was carried out in triplicate for each sample, and 20 μL of the diluted compound in HPLC-grade methanol (ACL) was sufficient to correspond to the standard curve.
# [2] = Cytotoxicity, MTT test, 72 h; settings: human, NCTC-2544 keratinocytes (immortalized, nontumorigenic)
# Method: (§2) An immortalized, nontumorigenic cell line of human keratinocytes (NCTC-2544) was grown in a DMEM medium (Sigma-Aldrich Milan, Italy), supplemented with 115 units/mL of penicillin G, 115 μg/mL streptomycin, and 10% fetal calf serum (Invitrogen, Milan, Italy). Individual wells of a 96-well tissue culture microtiter plates (Falcon, Becton–Dickinson) were inoculated with 100 μL of complete medium containing 5 × 10^3 NCTC-2544. The plates were incubated at 37 °C in a humidified (5% CO2) incubator for 18 h prior to the experiments.
# After medium removal, 100 μL of the drug solution, dissolved in DMSO and diluted in DMEM medium, was added to each well, incubated at 37 °C for 72 h. Final DMSO concentration never exceeded 0.5%. Cell viability was assayed by the MTT (3–(4,5-dimethylthiazol-2-yl)-2,5 diphenyl tetrazolium bromide) test as previously described by Mosmann[27].
# The tests were conducted using a specific cell line of human keratinocytes (NCTC-2544). To assess cell viability, in the presence of the study compounds, before and after the irradiation, the MTT assay was performed[27]. The cytotoxicity was checked after 72 h from the incubation of the keratinocytes with compounds; moreover, the same experiments were performed in the presence of the parent PBSA.
# [3] = 1,1-Diphenyl-2-picryl-hydrazyl radical (DPPH) assay; format: biochemical; settings: Trolox equivalents; mean ± SE of three experiments
# Method: To 1.5 mL DPPH methanolic solution (0.5 mM) was added 0.750 mL of sample solution proper diluted. Samples absorbance measurements were evaluated with a UV-VIS spectrophotometer (Thermo Spectronic Helios γ, Cambridge, UK) at fixed wavelength of 517 nm. Blank sample was prepared adding methanol to DPPH solution and Trolox was used as standard reference to achieve a calibration curve. The radical-scavenging activity is expressed as inhibition ratio of initial concentration of DPPH radical and is calculated according to the formula: Inhibition percentage (Ip) = [(AB-As)/AB]·100; where AB and As are, respectively, the absorbance values of blank reaction and of the tested sample[25].
# [4] = Ferric reducing antioxidant of potency (FRAP) assay; format: biochemical; settings: Trolox equivalents; mean ± SE of three experiments
# Method: The ferric reducing ability of each standard solution was measured according to a modified protocol described by Guihua et al.[26]. The reagent for analysis was freshly prepared by mixing the following solutions in the reported ratio 10/1/1 (v:v:v) (i) 0.1 M acetate buffer pH 3.6, (ii) TPTZ (2,4,6-Tri(2-pyridyl)-s-triazine) 10 mmol/L in 40 mmol/HCl, (iii) ferric chloride 20 mmol/L. To a 1.9 mL of reagent were added 0.1 mL of sample proper diluted or solvent when blank was performed. Readings at fixed wavelength of the absorption maximum (593 nm) were done after 30 min, using a UV-VIS spectrophotometer; it was evaluated the absorbance increase of sample solution against the absorbance of blank reaction as parameter to calculate the antioxidant activity. The antioxidant activity is given as Trolox activity since this standard was used to perform the calibration curves.
# [5] = UV spectra: λmax and molar extinction coefficient; format: physicochemical; settings: for λ max: aqueous solution at pH 7; for ɛ (molar extinction coefficient): aqueous solution at pH 7, at λ max, linear regression Lambert–Beer
# Method: Sun protection factor (SPF) is related to the UV absorption of the substances, so before including the molecules in cosmetic formulations we evaluated the wavelength of maximum absorption (λmax) and the molar extinction coefficient (ɛ) of each molecule in aqueous solution at pH 7. The UV spectra were recorded between 270 and 420 nm (20 nm higher and lower then UVA and UVB range) to verify the spectrum profile of the molecules within UVA and UVB region. UV spectrum of PBSA is an UVB filter and presents a λmax of 302 nm; after this peak, the absorbance fades going to higher wavelength until almost zero around 325 nm, and then, it provides no absorption in the UVA region. Molecules spectra overlapped for category according to the substituent in position 5 of the benzimidazole ring are shown in Figures 1, 2 and 3; PBSA spectrum is presented in all figures for comparison.
# From the spectra appears that the lambda maxima (Table 2) of the new molecules shifted toward higher wavelength and in general the range of absorption curve was wider than PBSA. Within a group of molecules, the batochromic shift was more marked for the molecules that have a hydroxyl moiety in position 2 of the phenyl ring (4, 5, 6, 9, 10, 11, 13 and […]); the effect of ortho substituted is known to produce this shift toward higher wavelength. Increasing the number of auxochrome groups on phenyl ring an increment in the absorption range occurred, compounds with three hydroxyl on the phenyl ring (6, 11, 15) had the broadest spectrum and their lambda maxima shifted at the highest wavelength compared to the other compounds. The absorption spectrum of molecules with the same number and position of hydroxyl seemed only slightly influenced by the substituent in position 5 of the benzimidazole ring. After having established the lambda maxima for every compound, solutions at different concentrations were prepared to calculate the molar extinction coefficient by means of linear regression and applying Lambert–Beer equation (Table 2).
# [6] = PCL antioxidant activity of finished formulations; format: biochemical; settings: 3% (w/w) compound in O/W formulation
# Method: as §1
# It was decided to use a standard formulation oil in water (O/W).
# In particular, molecules with phenolic hydroxyl in the ortho position on the phenyl ring (4, 5, 9, 10 and 13) had better and higher UVA/UVB ratio and critical wavelength, although they have the SPF value less than lead compound. Formulation containing products 2 and 14, which have a phenolic hydroxyl at the para position on the phenyl ring, have shown good values in terms of SPF, greater UVA protection factor, critical wavelength and also higher UVA/UVB ratio than PBSA, but yet lower than the molecules containing hydroxyl on the phenyl ring in ortho. […] Compound 8 has lower SPF than 3, but higher than PBSA; in comparison with 3, molecules 8 and 12 presented higher UVA/UVB ratio and critical wavelength. Regarding compounds with three hydroxyls on phenyl ring, they have good UVA filtering parameters, their critical wavelengths are the highest and SPF is higher than PBSA for molecule 6, while SPF of 15 is slightly lower and decreases further in molecule 11. Thus, it can be observed that parameters are mainly influenced by the number and position of the hydroxyl groups on the phenyl ring rather than the substituent in the 5-position of benzimidazole. Concomitantly, all formulations were analyzed to assess whether the antioxidant power was maintained. […] In Table 4, the antioxidant activity, measured by PCL method, of finished formulations is reported; as it can be seen results were in agreement with that obtained testing the pure compounds. […] Formulations containing compounds 3, 8 and 12 presented highest antioxidant capabilities; these are followed, but with important decrease in antioxidant capacity, by formulations with compounds 6, […] and 15 that have three hydroxyl moieties on phenyl ring.
# [7] = tested on: NCTC-2544 cells; assay: Phototoxicity / cellular photoprotection, UVA or UVB irradiation, MTT test; settings: for viability at 50 µM / viability at 20 µM: Homo sapiens, NCTC-2544, light or radiation study, 48 h; for cell survival in relation to the irradiated control: after UVB irradiation 1 J/cm^2; for phototoxic effect (cell survival vs irradiated control): NCTC-2544, UVA/UVB irradiation; for % Cell survival UVA 20 J/cm^2 / % Cell survival UVB 0.5 J/cm^2 / % Cell survival UVB 1 J/cm^2: 50 μM, vs nonirradiated cells (100%), 48 h after irradiation
# Method: as §2
# Two HPW 125 Philips lamps, mainly emitting at 365 nm, were used for UVA irradiation experiments. The spectral irradiance of the source was 4.0 mWcm^−^2 as measured at the sample level by a Cole-Parmer Instrument Company radiometer (Niles, IL) equipped with a 365-CX sensor. One or two PL-S 9 W/12 Philips lamps (280–370 nm; peak at 315 nm) were used for UVB irradiation experiments. To restrict the incident radiation to the range 305–370 nm, a glass filter (Schott SWG-305) was used. Total energy was detected by the same equipped with a sensor (model CX-312).
# After medium removal, 100 μL of the drug solution, dissolved in DMSO and diluted with Hank’s Balanced Salt Solution (HBSS pH =7.2), was added to each well, incubated at 37 °C for 30 min, and then irradiated (20 J/cm^2 for UVA and 0.5 and 1 J/cm^2 for UVB). After irradiation, the solution was replaced with the medium and the plates were further incubated for 48 h. Cell viability was assayed by the MTT [(3–(4,5-dimethylthiazol-2-yl)-2,5 diphenyl tetrazolium bromide)] test as previously described by Mosmann[27].
# Molecules were verified for their photocytotoxicity in the same cell line; the cells were treated with 50 μM solutions of compound and after 30 min were irradiated with 20 J/cm^2 UVA or with UVB at two energy amounts: 0.5 J/cm^2 and 1 J/cm^2 UVB. […] After irradiation, the solution was replaced with growth medium and the cells were further incubated for 48 h, and then, cell viability was assessed by MTT assay. […] The phototoxicity of tested molecules was compared with the ratio of cell survival of irradiated keratinocytes without substance (IC = irradiated control).
# [8] = read-out: % Cell survival UVA 20 J/cm^2
# [9] = read-out: % Cell survival UVB 0.5 J/cm^2
# [10] = read-out: % Cell survival UVB 1 J/cm^2
Molecule,PCL [1],IC50 at 72 h [2] [µM],DPPH [3],FRAP [4] [μmolTrolox/mmol],λ max [5] [nm],ɛ (molar extinction coefficient) [5],PCL of finished formulation [6],"viability at 50 µM [7, 8] [%]","viability at 50 µM [7, 9] [%]","viability at 50 µM [7, 10] [%]",cell survival in relation to the irradiated control [7],phototoxic effect (cell survival vs irradiated control) [7],"viability at 20 µM [7, 8] [%]","viability at 20 µM [7, 9] [%]","viability at 20 µM [7, 10] [%]",% Cell survival UVA 20 J/cm^2 [7] [%],% Cell survival UVB 0.5 J/cm^2 [7] [%],% Cell survival UVB 1 J/cm^2 [7] [%]
"O=S(=O)(O)c1ccc2[nH]c(-c3ccccc3O)nc2c1 [Compound 4, 2-(2-Hydroxy-phenyl)-1H-benzimidazole-5-sulfonic acid]",2.06 ± 0.05 μmolTrolox/mmol,> 50,2.03 ± 0.09 μmolTrolox/mmol,16.22 ± 0.89,315,21 000,0.06 ± 0.02 μmol Trolox/g formulation,76.9 ± 2,74.3 ± 3.2,37.7 ± 1.7,,,,,,,,
"O=C(O)c1ccc2[nH]c(-c3ccc(O)cc3)nc2c1 [Compound 14, 2-(4-Hydroxy-phenyl)-1H-benzimidazole-5-carboxylic acid]",6.98 ± 0.27 μmolTrolox/mmol,> 50,1.185 ± 0.02 μmolTrolox/mmol,2.62 ± 0.06,312,24 000,0.16 ± 0.02 μmol Trolox/g formulation,76.7 ± 3.4,74.2 ± 3.4,58.4 ± 2.5,doubled,,,,,,,
"O=C(O)c1ccc2[nH]c(-c3ccc(O)cc3O)nc2c1 [Compound 13, 2-(2,4-Dihydroxy-phenyl)-1H-benzimidazole-5-carboxylic acid]",160.26 ± 4.09 μmolTrolox/mmol,> 50,32.48 ± 2.38 μmolTrolox/mmol,31.63 ± 1.96,321,20 000,4.97 ± 0.17 μmol Trolox/g formulation,80.7 ± 1.3,69 ± 0.2,57.5 ± 2.4,doubled,,,,,,,
"O=S(=O)(O)c1ccc2[nH]c(-c3ccccc3)nc2c1 [PBSA, 2-phenyl-1H-benzimidazole-5-sulfonic acid, reference compound]",devoided of any activity; also recorded: < LOQ^a,> 50,devoided of any activity; also recorded: < LOQ^a,,302,25 000,<LOQ^b,74.5 ± 1.4,75.2 ± 4.5,64.2 ± 3.1,doubled,,,,,,,
"O=C(O)c1ccc2[nH]c(-c3ccc(O)c(O)c3O)nc2c1 [Compound 15, 2-(2,3,4-Trihydroxy-phenyl)-1H-benzimidazole-5-carboxylic acid]",1515.65 ± 75.56 μmolTrolox/mmol,> 50,1241.03 ± 9.43 μmolTrolox/mmol,2355.15 ± 52.55,332,17 000,86.99 ± 6.95 μmol Trolox/g formulation,12.2 ± 1.3,60.1 ± 2.3,25.6 ± 2.7,,phototoxic effect,,,,,,
"Oc1ccc(-c2nc3ccccc3[nH]2)c(O)c1O [Compound 11, 2-(2,3,4-Trihydroxy-phenyl)-1H-benzimidazole]",1614.675 ± 19.95 μmolTrolox/mmol,> 50,1811.02 ± 61.7 μmolTrolox/mmol,2723.19 ± 35.74,325,12 000,153.35 ± 8.14 μmol Trolox/g formulation,1.2 ± 0.2,45.6 ± 2.6,27 ± 2.4,,phototoxic effect,,,,,,
"O=S(=O)(O)c1ccc2[nH]c(-c3ccc(O)c(O)c3O)nc2c1 [Compound 6, 2-(2,3,4-Trihydroxy-phenyl)-1H-benzimidazole-5-sulfonic acid]",1924.35 ± 101.82 μmolTrolox/mmol,23.1 ± 2.9,1362.12 ± 133.96 μmolTrolox/mmol,2713.3 ± 45.17,328,22200 L/mol/cm,101.98 ± 1.08 μmol Trolox/g formulation,,,,,phototoxic effect,18.4 ± 2.3,59.3 ± 3.4,29.7 ± 2.1,,,
"2-(2,4-Dihydroxy-phenyl)-1H-benzimidazole [Compound 9]",198.53 ± 2.65 μmolTrolox/mmol,,16.47 ± 0.54 μmolTrolox/mmol,37.3 ± 0.35,315,14 000,8.66 ± 0.04 μmol Trolox/g formulation,,,,,,,,,3.7 ± 0.5,1.1 ± 0.3,0.5 ± 0.1
2-(2-Hydroxy-phenyl)-1H-benzimidazole [Compound 10],10.93 ± 0.05 μmolTrolox/mmol,,0.87 ± 0.05 μmolTrolox/mmol,23.04 ± 0.09,315,17 000,0.5 ± 0.02 μmol Trolox/g formulation,,,,,phototoxic effect,,,,4.8 ± 0.6,19.8 ± 2.4,3.5 ± 0.3
